Measurements reported in US5622839A (ZymoGenetics, Inc., priority 1995, dated 1997).
Like-named read-outs stand apart in the source and are kept apart here.

Experiments:
[1] = molecular target: T1, human calcitonin receptor (Homo sapiens, UniProt P30988); test: [Ca2+]i response of BHK cells expressing cloned calcitonin receptor to calcitonin and extracellular calcium (fura-2); format: cell-based; conditions: about 700,000 calcitonin receptors/cell
T1 construct: Hollex encoded a protein of 474 amino acids; expressed in transfected cells; host or cells: BHK 570 / BHK/KZ10-20-48 (baby hamster kidney) stably transfected with pHollex
T1 sequence (P30988 25-474): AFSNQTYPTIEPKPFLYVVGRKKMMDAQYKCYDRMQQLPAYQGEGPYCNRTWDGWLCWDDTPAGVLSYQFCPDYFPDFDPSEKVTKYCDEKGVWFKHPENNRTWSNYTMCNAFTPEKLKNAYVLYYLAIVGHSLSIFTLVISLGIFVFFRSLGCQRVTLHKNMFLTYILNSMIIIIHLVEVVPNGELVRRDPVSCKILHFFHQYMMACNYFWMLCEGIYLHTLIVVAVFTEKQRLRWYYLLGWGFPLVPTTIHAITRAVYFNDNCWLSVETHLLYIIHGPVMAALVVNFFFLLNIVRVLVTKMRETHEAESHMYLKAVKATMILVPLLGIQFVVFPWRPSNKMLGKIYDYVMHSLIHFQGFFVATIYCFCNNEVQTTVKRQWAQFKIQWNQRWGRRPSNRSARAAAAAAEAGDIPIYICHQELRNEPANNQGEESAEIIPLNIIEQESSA
Experimental: BHK cells expressing the cloned calcitonin receptor were assayed to determine their response to extracellular calcium. Cells were washed three times with a buffer (140 mM NaCl, 5 mM KCl, 0.5 mM MgCl2, 0.5 mM CaCl2 (concentration varied in some experiments), 10 mM glucose, 10 mM HEPES, pH 7.4) made using high purity salts (Aldrich, Milwaukee, Wis.) and sterile water (Baxter, McGaw Park, Ill.). Cells were loaded with fura-2 AM (Molecular Probes Inc.) (10 μg/ml) for 30 minutes essentially as described above, then washed an additional three times. Slides were mounted at room temperature on an inverted microscope (EPIPHOT, Nikon), and a field of cells (typically 20-30 cells) was located using a 40× Nikon fluor objective. The ratio of fura-2 emission at excitation wavelengths of 340 and 380 nm was recorded every 5 seconds. Individual cells were analyzed on a computer workstation (Sun Microsystems) using a software system designed for ratio imaging (Inovision). The concentration of calcium chloride in buffers was determined by comparison to calcium standards on a calcium analyzer (Nova Biomedical Corp. Waltham, Mass.). All experiments were reproduced three to eight times. Fura-2 ratio 340 nm to 380 nm values (R) were converted to [Ca^2+ ]i concentrations after calibration of the instrument using the formula: calcium (nm)=2240[R-0.3)/(20-R)]. Basal [Ca^2+ ]i concentrations were typically 80-150 nm. The peak fura-2 ratios 340/380 of individual cells exposed to 20 nm salmon calcitonin followed by 25 mM calcium chloride were averaged for some experiments and converted to [Ca^2+ ]i concentrations. Standard error was calculated at a 99% level using a Z score of 2.58 (n>30).

[2] = molecular target: T1, human calcitonin receptor; test: cAMP response by radioimmunoassay (scintillation proximity assay) in Hollex1 and Hollex2; format: cell-based; conditions: 10 min; for EC50: read-out: ED50 (cAMP)
Experimental: The cAMP response of the transfectant clones Hollex1 and Hollex2 to calcitonin and forskolin was also assayed by radioimmunoassay using the cAMP [^125 I] scintillation proximity assay system (Amersham) using the manufacturer's directions. Briefly, either 1×10^5 cells per well or 3×10^5 cells per well were plated into the wells of a 24-well culture dish and grown for 2 days (1×10^5 cells per well) or overnight (3×10^5 cells per well) in selection medium. Calcitonin and forskolin were prepared in DMEM, 10% fetal calf serum, 10 μM IBMX at 0.0001-1000 nM and 25 μM, respectively.
The growth medium was replaced with 200 μl/well of agonist (either calcitonin or forskolin). The cells were incubated with the agonists for 10 minutes at 37° C. in 5% CO2. Following incubation, 800 μl of boiling water was added to each well. After 15 minutes the supernatants were collected and diluted 1:5 or 1:40 in acetate buffer (cAMP [^125 I] Scintillation Proximity Assay System (Amersham)). Samples were acetylated using triethylamine and acetic anhydride according to the protocol provided by the manufacturer.
A 100 μl aliquot of each acetylated sample was combined with 75 μl of ^125 I-cAMP, 75 μl anti-succinyl cAMP antisera and 75 μl of donkey anti-rabbit IgG coupled SPA beads (all assay solutions provided in the cAMP [^125 I] Scintillation Proximity Assay System (Amersham)) in a well of an Dynatech MICROLITE 2 plate. The trays were sealed and incubated overnight with continuous shaking on a rotary platform shaker at 200 rpm. The samples were counted in a Packard Top Count Microplate Scintillation Counter (Packard Instrument Co., Meriden, Conn.). A standard curve of 2-128 fmol acetylated cAMP was also run. Total ^125 I-cAMP bound and nonspecific binding were also determined.

## salmon calcitonin
[1]
  concentration giving maximal transient [Ca2+]i increases: 10-20 nm
[2]; Hollex1
  EC50: 0.07 nM
[2]; Hollex1, saturating concentrations (10-100 nM)
  induction of cAMP: 12 fold
[2]; Hollex2
  EC50: 0.04 nM
[2]; Hollex2, saturating concentrations (10-100 nM)
  induction of cAMP levels: 5 fold
